Assay results as given in patent publication US11040954B1, “CXCR3 receptor agonists” (RECEPTOS LLC, priority 2016, dated 2021).

Biological target: T1, CXCR3 (Homo sapiens, UniProt P49682)
T1 construct: host or cells: CHO-K1 (cAMP Hunter CHOK1 CXCR3 Gi cell line)
T1 sequence (P49682 1-368): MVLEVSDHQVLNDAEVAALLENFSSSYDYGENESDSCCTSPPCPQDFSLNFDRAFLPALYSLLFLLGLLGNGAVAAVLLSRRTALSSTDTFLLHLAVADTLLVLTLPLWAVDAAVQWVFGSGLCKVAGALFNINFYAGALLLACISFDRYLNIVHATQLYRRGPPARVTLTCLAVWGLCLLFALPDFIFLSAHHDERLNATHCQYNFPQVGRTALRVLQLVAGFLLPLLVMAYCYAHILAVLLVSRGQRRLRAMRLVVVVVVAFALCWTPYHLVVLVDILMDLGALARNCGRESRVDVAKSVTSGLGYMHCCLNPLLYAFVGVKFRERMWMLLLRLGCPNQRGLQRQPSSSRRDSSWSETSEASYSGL
Test: CXCR3 cAMP agonist assay (cAMP Hunter CHOK1 CXCR3 Gi cell line, forskolin-stimulated, HitHunter cAMP detection)
Type: cell-based
Details: cAMP Hunter CHOK1 CXCR3 Gi cells, 20 μM forskolin, 30 minutes; read-out: Activity (CXCR3 cAMP agonist assay compound EC50)
Outline: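 CHOK1 cells expressing human CXCR3 with Gi coupling, 50,000/well in suspension in HBSS/10 mM HEPES/0.1% BSA pH 7.4, were co-treated with 20 μM forskolin and compound (12-point, 0-10 μM, 1% DMSO) for 30 min. cAMP was read by enzyme-complementation luminescence; CXCL11 dose response set maximum efficacy.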

Compound	EC50
COC1CCN(CC[C@H](NC(=O)[C@@H]2Cc3ccccc3CN2C(=O)CCC(=O)c2ccccc2)C(=O)Nc2ccc(Cl)c(C)c2)CC1 [Compound 24-1, (S)—N—((S)-1-((4-chloro-3-methylphenyl)amino)-4-(4-methoxypiperidin-1-yl)-1-oxobutan-2-yl)-2-(4-oxo-4-phenylbutanoyl)-1,2,3,4-tetrahydroisoquinoline-3-carboxamide]	50 to 250 nM
CN1CCN(CC[C@H](NC(=O)[C@@H]2Cc3ccccc3CN2C(=O)CCC(=O)c2ccccc2)C(=O)Nc2ccc3c(c2)CCC3)CC1 [Compound 24-2]	50 to 250 nM
CC1(C)CCCCN1C(=O)CCC(=O)N1Cc2ccccc2C[C@H]1C(=O)N[C@@H](CCN1CCC(O)CC1)C(=O)Nc1ccc(Cl)c(Cl)c1F [Compound 26-1, (S)—N—((S)-1-((3,4-dichloro-2-fluorophenyl)amino)-4-(4-hydroxypiperidin-1-yl)-1-oxobutan-2-yl)-2-(4-(2,2-dimethylpiperidin-1-yl)-4-oxobutanoyl)-1,2,3,4-tetrahydroisoquinoline-3-carboxamide]	< 50 nM
CC1(C)CCCCN1C(=O)CCC(=O)N1Cc2ccccc2C[C@H]1C(=O)N[C@H](CCN1CCC(O)CC1)C(=O)Nc1ccc(Cl)c(Cl)c1F [Compound 26-2]	< 50 nM
CC1(C)CCCN(C(=O)CCC(=O)N2Cc3ccccc3C[C@H]2C(=O)N[C@@H](CCN2CCC(O)CC2)C(=O)Nc2ccc(Cl)c(Cl)c2F)C1 [Compound 26-3]	< 50 nM
Cc1cnc(NC(=O)[C@H](CCN)NC(=O)[C@@H]2Cc3ccccc3CN2C(=O)CCC(=O)c2ccccc2)cc1Cl [Compound 27-1, (S)—N—((S)-4-amino-1-((4-chloro-5-methylpyridin-2-yl)amino)-1-oxobutan-2-yl)-2-(4-oxo-4-phenylbutanoyl)-1,2,3,4-tetrahydroisoquinoline-3-carboxamide]	< 50 nM
NCC[C@H](NC(=O)[C@@H]1Cc2ccccc2CN1C(=O)CCC(=O)c1ccccc1)C(=O)Nc1cc(Cl)c(F)c(Cl)c1 [Compound 27-2]	250 to 500 nM
N#Cc1ccccc1NC(=O)[C@H](CCN)NC(=O)[C@@H]1Cc2ccccc2CN1C(=O)CCC(=O)c1ccccc1 [Compound 27-4]	< 50 nM
Cc1c(F)cc(NC(=O)[C@H](CCN)NC(=O)[C@@H]2Cc3ccccc3CN2C(=O)CCC(=O)c2ccccc2)cc1F [Compound 27-5]	< 50 nM
NCC[C@H](NC(=O)[C@@H]1Cc2ccccc2CN1C(=O)CCC(=O)c1ccccc1)C(=O)Nc1cc(F)c(Cl)c(Cl)c1 [Compound 27-6]	50 to 250 nM
O=C(CCC(=O)N1Cc2ccccc2C[C@H]1C(=O)N[C@@H](CCN1CCC(O)CC1)C(=O)Nc1ccc2c(c1)CCC2)c1ccccc1 [Compound 28-1, (S)—N—((S)-1-((2,3-dihydro-1H-inden-5-yl)amino)-4-(4-hydroxypiperidin-1-yl)-1-oxobutan-2-yl)-2-(4-oxo-4-phenylbutanoyl)-1,2,3,4-tetrahydroisoquinoline-3-carboxamide]	< 50 nM
Cc1cccc(NC(=O)[C@H](CCN2CCC(O)CC2)NC(=O)[C@@H]2Cc3ccccc3CN2C(=O)CCC(=O)c2ccccc2)c1F [Compound 28-2]	< 50 nM
Cc1ccc(NC(=O)[C@H](CCN2CCC(O)CC2)NC(=O)[C@@H]2Cc3ccccc3CN2C(=O)CCC(=O)c2ccccc2)c(F)c1 [Compound 28-3]	250 to 500 nM
CS(=O)(=O)Oc1ccc2c(c1)CN(C(=O)CCC(=O)c1ccccc1)[C@H](C(=O)N[C@@H](CCN)C(=O)Nc1ccc(Cl)c(Cl)c1F)C2 [Compound 29-1, (S)-3-(((S)-4-amino-1-((3,4-dichloro-2-fluorophenyl)amino)-1-oxobutan-2-yl)carbamoyl)-2-(4-oxo-4-phenylbutanoyl)-1,2,3,4-tetrahydroisoquinolin-7-yl methanesulfonate]	50 to 250 nM
N#Cc1ccc2c(c1)CN(C(=O)CCC(=O)c1ccccc1)[C@H](C(=O)N[C@@H](CCN)C(=O)Nc1ccc(Cl)c(Cl)c1F)C2 [Compound 30-1, (S)—N—((S)-4-amino-1-((3,4-dichloro-2-fluorophenyl)amino)-1-oxobutan-2-yl)-7-cyano-2-(4-oxo-4-phenylbutanoyl)-1,2,3,4-tetrahydroisoquinoline-3-carboxamide]	50 to 250 nM
Cc1cc(NC(=O)[C@H](CCNC(=O)CN)NC(=O)[C@@H]2Cc3ccccc3CN2C(=O)CCC(=O)N2CCCCC2)ccc1Cl [Compound 31-1, (S)—N—((S)-4-(2-aminoacetamido)-1-((4-chloro-3-methylphenyl)amino)-1-oxobutan-2-yl)-2-(4-oxo-4-(piperidin-1-yl)butanoyl)-1,2,3,4-tetrahydroisoquinoline-3-carboxamide]	< 50 nM
CS(=O)(=O)NCC[C@H](NC(=O)[C@@H]1Cc2ccccc2CN1C(=O)CCC(=O)N1CCCCC1)C(=O)Nc1ccc(Cl)c(Cl)c1F [Compound 32-1, (S)—N—((S)-1-((3,4-dichloro-2-fluorophenyl)amino)-4-(methylsulfonamido)-1-oxobutan-2-yl)-2-(4-oxo-4-(piperidin-1-yl)butanoyl)-1,2,3,4-tetrahydroisoquinoline-3-carboxamide]	50 to 250 nM
Cc1cc(NC(=O)[C@H](CCNS(C)(=O)=O)NC(=O)[C@@H]2Cc3ccccc3CN2C(=O)CCC(=O)N2CCCCC2)ccc1Cl [Compound 32-2]	< 50 nM
CC1(C)CCCCN1C(=O)CCC(=O)N1Cc2ccccc2C[C@H]1C(=O)NC(CC12CC(N)(C1)C2)C(=O)Nc1ccc(Cl)c(Cl)c1F (stereo partly drawn) [Compound 33-1, (3S)—N-(3-(3-aminobicyclo[1.1.1]pentan-1-yl)-1-((3,4-dichloro-2-fluorophenyl)amino)-1-oxopropan-2-yl)-2-(4-(2,2-dimethylpiperidin-1-yl)-4-oxobutanoyl)-1,2,3,4-tetrahydroisoquinoline-3-carboxamide]	< 50 nM
CC1(C)CCCCN1C(=O)CCC(=O)N1Cc2ccc(F)cc2C[C@H]1C(=O)N[C@@H](CCN)C(=O)Nc1ccc(Cl)c(Cl)c1F [Compound 34-1, (S)—N—((S)-4-amino-1-((3,4-dichloro-2-fluorophenyl)amino)-1-oxobutan-2-yl)-2-(4-(2,2-dimethylpiperidin-1-yl)-4-oxobutanoyl)-6-fluoro-1,2,3,4-tetrahydroisoquinoline-3-carboxamide]	< 50 nM
N#Cc1c(NC(=O)[C@H](CCN)NC(=O)[C@@H]2Cc3ccccc3CN2C(=O)CCC(=O)c2ccccc2)ccc2c1CCC2 [Compound 35-1, (S)—N—((S)-4-amino-1-((4-cyano-2,3-dihydro-1H-inden-5-yl)amino)-1-oxobutan-2-yl)-2-(4-oxo-4-phenylbutanoyl)-1,2,3,4-tetrahydroisoquinoline-3-carboxamide]	< 50 nM
Cc1cc(C#N)c(NC(=O)[C@H](CCN)NC(=O)[C@@H]2Cc3ccccc3CN2C(=O)CCC(=O)c2ccccc2)cc1Cl [Compound 35-2]	< 50 nM
